This is an account of results in US6159953A, “Anti-malarial composition and method of use” (Catholic University of America, priority 1992, dated 2000).

Read-outs that look alike come from different tables or passages of the source.

Series [1] concerns Plasmodium falciparum, Indochina clone W2. As to the kind of experiment: microbe, parasite or virus in culture. Conditions: for IC50: Plasmodium falciparum. The protocol:
In the antimalarial experiment with parasites, incorporation of radioactivity from [G-^3 H]-hypoxanthine into nucleic acids served as a measure of parasite proliferation. […] Each data point represents an average of two determinations. In the study of toxicity to human cells, proliferation of cells was determined directly by measuring the number of viable cells per well. […] Each data point represents an average of two determinations. 5-fluoro-orotate (.circle-solid.), 5-fluorouracil (.box-solid.), 5-fluorouridine (.tangle-solidup.), and 5-fluoro-2'-deoxyuridine (.diamond-solid.).
Half shaded symbols represent overlapping data points.
(§1) 3. Effects of pyrimidine analogues alone or in combination with normal pyrimidine bases or nucleosides or with amino acid derivatives can be tested in malaria parasite-infected erythrocytes. Varying concentrations of pyrimidine analogues in culture medium are added to individual wells of microtitre plates [Desjardins, R. E. et al., Antimicrob. […] Parasitemic erythrocytes in culture medium are added to each well. […] As an alternative to adding a radioactive precursor of nucleic acid biosynthesis, the end point for determining the effects of added drugs can be the incorporation of a radioactive amino acid, e.g., [U-^14 C]-isoleucine, into parasite protein.
Fluoropyrimidines, dispersed in 25 μl of culture medium, were added to individual wells of a 96-well microtitre plate. […] Finally, the incorporation of 0.5 μCi of [G-^3 H]hypoxanthine (1 Ci/mmol) into nucleic acids in each well was determined; this served as a measure of parasite proliferation.

Series [2] relates to Plasmodium falciparum, Sierra Leone clone D6. As to the kind of experiment: Inhibition of P. falciparum proliferation, [G-3H]-hypoxanthine incorporation, Sierra Leone clone D6 (chloroquine-sensitive). In kind it is cell-based. Particulars: for IC50: Plasmodium falciparum. The protocol: as §1
Fluoropyrimidines, dispersed in 25 μl of culture medium, were added to individual wells of a 96-well microtitre plate. […] Finally, the incorporation of 0.5 μCi of [G-^3 H]hypoxanthine (1 Ci/mmol) into nucleic acids in each well was determined; this served as a measure of parasite proliferation. […] In a second method, the increase in parasitemia was determined directly by smearing infected erythrocytes on microscope slides, staining with Giemsa stain, and determining the ratio of infected to non-infected erythrocytes. In a third method, parasite-infected erythrocytes were incubated with [U-^14 C]-isoleucine (0.5 μCi; 0.33 Ci/mmol), and the amount of radioactivity incorporated into precipitable proteins determined.

Series [3] is described as follows: Pharmacokinetics of 5-fluoro-orotate in mice. In kind it is in vivo, Swiss white mice. The protocol: FIG. 3 illustrates time-dependant changes in plasma 5-fluoroorotate concentration following single intraperitoneal injections of 5-fluoro-orotate at 0.2 mg/kg (.box-solid.), 1 mg/kg (.diamond-solid.), or 5 mg/kg (.tangle-solidup.). Two mice were used at each dosage level. At each time point, duplicate 200 μl samples of blood were drawn and analyzed for 5-fluoro-orotate concentration.
Several types of in vivo experiments in intact vertebrates can be used to test the effectiveness in vivo of the anti-malarial compositions of this invention. In one in vivo test system, dosage regimens for pyrimidine analogues are estimated by determining the pharmacokinetics of the drugs. Normal and malaria parasite-infected animals (preferably mice, but other rodents can be used) are injected once (preferably intraperitoneally, but subcutaneous or intravenous administration is also suitable) with the drug at various doses, e.g, from 0 to about 10 mg/kg body weight, preferably from about 0.2 to about 5 mg/kg body weight. At various time points (preferably from about 3 to about 180 minutes), blood samples are drawn from the animals and the amount of the drug in the plasma fraction determined as described in Example 7 below. The concentration of drug is plotted as a function of time for each drug dosage.
Pairs of Swiss white mice (Charles River Labs, Mass.) were injected intraperitoneally with 200 μl of [2-^14 C]-5-fluoro-orotate in saline (55 μCi/μmol). Single injections of the drug were made at dosages of 0.2, 1 and 5 mg/kg body weight. At time points ranging from about 3 to about 180 minutes, two 200 μl blood samples were drawn from the tail veins of the mice, and the amount of 5-fluoro-orotate present in the plasma determined, as described below.
Blood samples were immediately diluted in 100 μl of cold saline, and centrifuged in a desk top Eppendorf centrifuge for 1 minute to separate the plasma fraction from blood cells. Cell pellets were washed with 100 μl of saline, centrifuged, and the supernatant fractions mixed with plasma fractions. In order to determine the 5-fluoro-orotate concentrations of the diluted plasma fractions, the radioactive content of half the samples was determined by liquid scintillation spectrometry. The remaining samples were chromatographed on a Pharmacia FPLC system using a Mono Q anion-exchange column.

As for `O=C(O)c1[nH]c(=O)[nH]c(=O)c1F` [5-fluoro-orotate], the “effect of uridine on cytotoxicity towards malarial parasites” value in series [1] (Indochina clone W-2, 48 h, 1 mM uridine (FIG. 2)) is recorded as “no effect”. Also, the 50% inhibitory concentration (IC50) in series [1] (W2) came to 6 ± 1.7 nM; in series [1] (W2, 48 h), 6 nM; in series [2] (D6, Example 3, Table 2, hypoxanthine uptake), 2.2 nM; in series [2] (D6, Sierra Leone clone, Table 1, mean ± S.D. of five independent drug response curves), 5.8 ± 3.1 nM. In addition, the results for the “times more active than chloroquine” value in series [1] (multidrug-resistant Indochina clone) and in series [2] (chloroquine-sensitive Sierra Leone clone) were 21 times and 1.6 times, respectively. For the same compound, the “identity of plasma radioactivity” value in series [3] (90 minutes after injection, Mono Q chromatography) is “radioactivity in the plasma fraction was due to 5-fluoro-orotate and not some secondary metabolite of the experimental drug”. Moreover, the “plasma pharmacokinetic profile in infected mice” value in series [3] (P. yoelii infected (10% parasitemia), 1 mg/kg, vs uninfected mice) is “essentially the same as that of uninfected mice”. In series [3] ([2-14C]-5-fluoro-orotate i.p.), the “circulating radioactivity associated with blood cells” value is recorded as “below 10%”. The half-life in series [3] (mouse, ip, single i.p. dose, plasma, mice, read-out: t1/2 (loss from the circulation)) is ~1.5 h. Moreover, the concentration at 1 h in series [3] (mouse, plasma, ip, 0.2 mg/kg i.p., within 60 minutes, read-out: drug concentration within 60 minutes) is < 0.5 µM. Besides, the Cmax was ≤ 2 µM in series [3] (mouse, plasma, ip, 0.2 mg/kg i.p., read-out: maximum drug concentration) and ~30 µM in series [3] (mouse, plasma, ip, single i.p. 5 mg/kg, read-out: peak plasma concentration). Also, in series [3] (mouse, plasma, ip, single i.p. 0.2, 1, 5 mg/kg, all dosages, read-out: time of peak plasma concentration), the Tmax was ≤ 0.333 h. The concentration in series [3] (single i.p. 5 mg/kg, read-out: plasma concentration after rapid drop) is < 10 µM.

Broadly, the IC50 is the concentration that gives 50% inhibition.
